Reference: patent US20130022649A1, “SNALP FORMULATIONS CONTAINING ANTIOXIDANTS” (Protiva Biotherapeutics, Inc., priority 2009, published 2013)

Experiment: Lipid content and purity by reverse phase HPLC (Example 3 Study 3)
Type: physicochemical
Conditions: in 20 mM citrate 1:57 SNALP formulation
Protocol: Samples were removed after 2 weeks of storage at room temperature (RT) or 40° C. (accelerated conditions). Samples were analyzed for particle size, encapsulation efficiency, lipid content and purity, and siRNA content and purity. Particle size measurements were obtained using a Malvern Zetasizer instrument and encapsulation efficiency was determined using a RiboGreen fluorometric assay. Lipid content and purity were analyzed by reverse phase HPLC. siRNA content and purity were analyzed by denaturing anion-exchange HPLC (DENAX).
Reverse phase HPLC analysis was performed to assess the level of lipid degradation. The results are shown Tables 23-25. […] The formulations containing EDTA or EDTA combined with additional antioxidants had no significant change in lipid content at either storage temperature. The same trends in lipid stability were observed regardless of which cationic lipid was present in the formulation.

- cationic lipid content before the drop: about 58 mol %
- cationic lipid content after storage (2 weeks at 40° C.): about 52 mol %
SMILES: CCCCC/C=C\C/C=C\CCCCCCCCC(CCCCCCCC/C=C\C/C=C\CCCCC)OCCCCN(C)C [MC4 Ether, 4-((6Z,9Z,28Z,31Z)-heptatriaconta-6,9,28,31-tetraen-19-yloxy)-N,N-dimethylbutan-1-amine]
